The source of these data is ChEMBL document CHEMBL1949591, “Reversal of multidrug resistance by morning glory resin glycosides in human breast cancer cells” (J Nat Prod, 2012).

Molecules are shown by their SMILES. ≈ marks a conversion by molar mass, not a printed value.

Data set [1] has as its system MCF7. As to the kind of experiment: Reversal of p-glycoprotein-mediated drug resistant in vinblastine-resistant human MCF7 cells assessed as ratio of IC50 for vinblastin to IC50 for vinblastin in presence of compound at 25 ug/ml after 72 hrs by SRB assay. The data set is classed as cell-based. In general terms: The SRB assay estimates cell density from bound dye.
Data set [2] deals with MCF7. In words: Reversal of p-glycoprotein-mediated drug resistant in human MCF7 cells grown in vinblastine-free medium assessed as ratio of IC50 for vinblastin to IC50 for vinblastin in presence of compound at 25 ug/ml after 72 hrs by SRB assay. In kind it is cell-based.
In data set [3] the test system is MCF7. In words: Reversal of p-glycoprotein-mediated drug resistant in vinblastine-sensitive human MCF7 cells assessed as ratio of IC50 for vinblastin to IC50 for vinblastin in presence of compound at 25 ug/ml after 72 hrs by SRB assay. The data set is classed as cell-based.
Data set [4] deals with MCF7. In words: Cytotoxicity against vinblastine-resistant human MCF7 cells after 72 hrs by SRB assay. In kind it is functional, cell-based. Conditions: MCF7, 72 h; call rule not given here.
For data set [5], the target named is T1, ATP-dependent translocase ABCB1 (Homo sapiens, UniProt P08183). In words: Inhibition of p-glycoprotein in vinblastine-sensitive human MCF7 cells assessed as decrease in rhodamine 123 accumulation at 25 ug/ml after 30 mins by flow cytometry. In kind it is cell-based. Conditions: mcf7, 0.5 h.
T1 sequence (P08183 whole entry): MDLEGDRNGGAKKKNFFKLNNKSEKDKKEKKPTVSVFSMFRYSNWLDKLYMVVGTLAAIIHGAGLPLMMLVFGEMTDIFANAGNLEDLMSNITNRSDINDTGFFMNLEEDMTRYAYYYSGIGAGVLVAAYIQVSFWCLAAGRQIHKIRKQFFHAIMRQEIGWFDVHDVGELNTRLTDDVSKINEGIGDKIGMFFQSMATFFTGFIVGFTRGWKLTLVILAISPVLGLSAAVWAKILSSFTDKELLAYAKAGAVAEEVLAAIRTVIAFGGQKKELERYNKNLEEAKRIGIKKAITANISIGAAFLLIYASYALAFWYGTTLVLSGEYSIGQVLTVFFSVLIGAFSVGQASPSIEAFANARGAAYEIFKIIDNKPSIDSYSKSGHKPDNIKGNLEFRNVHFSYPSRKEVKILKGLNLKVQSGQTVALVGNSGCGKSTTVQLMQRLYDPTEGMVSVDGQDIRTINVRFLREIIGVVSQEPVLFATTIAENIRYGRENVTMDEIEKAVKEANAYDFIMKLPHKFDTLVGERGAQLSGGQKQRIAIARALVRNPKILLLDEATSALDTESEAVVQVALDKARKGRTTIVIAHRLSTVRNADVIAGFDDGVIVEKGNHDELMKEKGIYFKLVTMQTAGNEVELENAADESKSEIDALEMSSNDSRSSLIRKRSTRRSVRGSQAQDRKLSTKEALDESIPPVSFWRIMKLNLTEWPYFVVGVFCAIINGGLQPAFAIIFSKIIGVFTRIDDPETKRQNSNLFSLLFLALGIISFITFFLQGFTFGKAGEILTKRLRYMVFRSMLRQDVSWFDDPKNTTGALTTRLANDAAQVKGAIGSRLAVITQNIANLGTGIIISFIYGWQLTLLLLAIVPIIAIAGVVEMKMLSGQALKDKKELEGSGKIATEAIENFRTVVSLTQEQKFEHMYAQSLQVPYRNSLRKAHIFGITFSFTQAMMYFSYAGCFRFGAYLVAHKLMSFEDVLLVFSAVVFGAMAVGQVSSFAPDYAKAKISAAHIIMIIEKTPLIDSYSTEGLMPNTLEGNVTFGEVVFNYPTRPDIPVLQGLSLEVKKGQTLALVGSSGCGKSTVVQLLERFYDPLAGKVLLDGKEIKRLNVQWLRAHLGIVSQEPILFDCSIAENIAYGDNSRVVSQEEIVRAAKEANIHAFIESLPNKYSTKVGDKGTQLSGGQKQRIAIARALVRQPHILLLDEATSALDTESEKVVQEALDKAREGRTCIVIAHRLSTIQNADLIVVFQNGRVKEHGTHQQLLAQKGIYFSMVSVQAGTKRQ
The target in data set [6] is T1, ATP-dependent translocase ABCB1. As to the kind of experiment: Inhibition of p-glycoprotein in vinblastine-sensitive human MCF7 cells assessed as decrease in rhodamine 123 accumulation at 25 ug/ml after 30 mins followed by washout measured after […] by flow cytometry. The data set is classed as cell-based. Conditions: mcf7, 0.5 h.
For data set [7], the system named is MCF7. In words: Inhibition of p-glycoprotein expression in vinblastine-sensitive human MCF7 cells at 25 ug/ml after 24 hrs by immunofluorescence flow cytometry relative to control. The data set is classed as functional. Conditions: MCF7, 24 h. Background: A flow cytometer gives signals particle by particle.
In data set [8] the target is T1, ATP-dependent translocase ABCB1. As to the kind of experiment: Inhibition of p-glycoprotein in vinblastine-sensitive human MCF7 cells assessed as decrease in rhodamine 123 accumulation at 5 ug/ml after 30 mins by flow cytometry. The data set is classed as cell-based. Conditions: mcf7, 0.5 h.
Data set [9] relates to MCF7. In words: Inhibition of p-glycoprotein expression in vinblastine-sensitive human MCF7 cells at 5 ug/ml after 24 hrs by immunofluorescence flow cytometry relative to control. In kind it is functional. Conditions: MCF7, 24 h.

Turning to `CCCCC[C@H]1CCCCCCCCCC(=O)O[C@H]2[C@H](O[C@H]3[C@H](O1)O[C@H](C)[C@H](O)[C@@H]3O)O[C@@H](C)[C@H](O[C@@H]1O[C@@H](C)[C@H](O[C@@H]3O[C@@H](C)[C@H](OC(=O)[C@@H](C)CC)[C@@H](O)[C@H]3O)[C@@H](O[C@@H]3O[C@H](CO)[C@@H](O)[C@H](O)[C@H]3O)[C@H]1OC(=O)[C@@H](C)CC)[C@H]2O`, the results for the Ratio IC50 in the data set with MCF7 [1], in the data set with MCF7 [2] and in the data set on MCF7 [3] were greater than 1910, greater than 1590 and greater than 73.4, respectively.
Turning to `CCCCC[C@H]1CCCCCCCCCC(=O)O[C@H]2[C@H](O[C@H]3[C@H](O1)O[C@H](C)[C@H](O)[C@@H]3O)O[C@@H](C)[C@H](O[C@@H]1O[C@@H](C)[C@H](O[C@@H]3O[C@@H](C)[C@H](OC(=O)[C@@H](C)CC)[C@@H](O)[C@H]3O)[C@@H](OC(=O)[C@@H](C)CC)[C@H]1O)[C@H]2O`, the Ratio IC50 is greater than 1910 in the data set on MCF7 [1], greater than 1590 in the data set with MCF7 [2] and greater than 73.4 with MCF7 [3].
On the same counts, the results for `CCCCC[C@H]1CCCCCCCCCC(=O)O[C@H]2[C@H](O)[C@@H](CO)O[C@@H](O[C@H]3[C@H](O1)O[C@H](C)[C@H](O)[C@@H]3O)[C@@H]2O[C@@H]1O[C@@H](C)[C@H](OC(=O)[C@@H](C)CC)[C@@H](O[C@@H]2O[C@@H](C)[C@H](O)[C@@H](O)[C@H]2O)[C@H]1OC(=O)[C@@H](C)CC` are greater than 1910, greater than 1590 and 47.
Broadly, the IC50 is the concentration at which inhibition is half-maximal. `CCCCC[C@H]1CCCCCCCCCC(=O)O[C@@H]2[C@@H](O[C@@H]3O[C@H](C)[C@@H](OC(=O)[C@@H](C)CC)[C@H](O)[C@H]3O)[C@H](C)O[C@@H](O[C@H]3[C@H](O[C@H]4[C@H](O1)O[C@H](C)[C@@H](O)[C@@H]4O)O[C@H](COC(=O)[C@H](C)[C@@H](C)O)[C@@H](O)[C@@H]3O)[C@@H]2OC(=O)[C@@H](C)CC` [ORIZABIN XX]: the IC50 in the data set with MCF7 [4] stood at 1.5 µg/mL (≈ 1.34 µM).
In the data set on MCF7 [4], `C/C=C(\C)C(=O)O[C@H]1[C@H](O)[C@@H](O)[C@H](O[C@@H]2[C@H]3OC(=O)CCCCCCCCC[C@H](CCCCC)O[C@@H]4O[C@H](C)[C@@H](O)[C@H](O)[C@H]4O[C@@H]4O[C@H](COC(=O)[C@H](C)[C@@H](C)O)[C@@H](O)[C@H](O)[C@H]4O[C@H](O[C@H]2C)[C@@H]3OC(=O)[C@@H](C)CC)O[C@@H]1C` [ORIZABIN XVI] displayed an IC50 of 1.5 µg/mL (≈ 1.34 µM).
A word on the inhibition: it is the change of the read-out against control, counted positive when it falls. For the compound `CCCCC[C@H]1CCCCCCCCCC(=O)O[C@H]2[C@@H](O)[C@H](O[C@H]3[C@H](O1)O[C@H](C)[C@H](O)[C@@H]3O)O[C@@H](C)[C@@H]2O[C@@H]1O[C@@H](C)[C@H](O[C@@H]2O[C@@H](C)[C@H](OC(=O)[C@@H](C)CC)[C@@H](O)[C@H]2O)[C@@H](O[C@@H]2O[C@H](CO)[C@@H](O)[C@H](O)[C@H]2O)[C@H]1OC(=O)[C@@H](C)CC` [MURUCOIDIN V], the Ratio IC50 came out at 7.8 in the data set on MCF7 [1], 255 in the data set on MCF7 [2] and 47 in the data set on MCF7 [3]. In addition, the “inhibition (INH)” value in [5] and in data set [6] was “Active” in each case. The inhibition at 25 µg/mL in the data set on MCF7 [7] is 30%.
With `CCCCC[C@H]1CCCCCCCCCC(=O)O[C@H]2[C@H](O[C@H]3[C@H](O1)O[C@H](CO)[C@@H](O)[C@@H]3O)O[C@@H](C)[C@H](O[C@@H]1O[C@@H](C)[C@H](O[C@@H]3O[C@@H](C)[C@H](OC(=O)[C@@H](C)CC)[C@@H](O)[C@H]3O)[C@@H](O[C@@H]3O[C@@H](C)[C@H](O)[C@@H](O)[C@H]3O)[C@H]1OC(=O)[C@@H](C)CC)[C@H]2O`, the Ratio IC50 in the data set on MCF7 [1] is greater than 1910; with MCF7 [2], greater than 1590; with MCF7 [3], greater than 73.4.
Compound `C/C=C(\C)C(=O)O[C@H]1[C@H](O)[C@@H](O)[C@H](O[C@@H]2[C@H]3OC(=O)CCCCCCCCC[C@H](CCCCC)O[C@@H]4O[C@H](C)[C@@H](O)[C@H](O)[C@H]4O[C@@H]4O[C@H](COC(=O)[C@@H](C)CC)[C@@H](O)[C@H](O)[C@H]4O[C@H](O[C@H]2C)[C@@H]3OC(=O)[C@H](C)[C@@H](C)O)O[C@@H]1C` [ORIZABIN XIV] returned an IC50 in the data set with MCF7 [4] of 1.5 µg/mL (≈ 1.34 µM).
Regarding `COC(=O)[C@H]1[C@H]2C[C@@H]3c4[nH]c5cc(OC)ccc5c4CCN3C[C@H]2C[C@@H](OC(=O)c2cc(OC)c(OC)c(OC)c2)[C@@H]1OC` [RESERPINE], in [8], the “inhibition (INH)” value is listed as “Active”. The same compound came in with an inhibition at 5 µg/mL in the data set on MCF7 [9] of 38%.
On to `C/C=C(\C)C(=O)O[C@H]1[C@H](O)[C@@H](O)[C@H](O[C@@H]2[C@H]3OC(=O)CCCCCCCCC[C@H](CCCCC)O[C@@H]4O[C@H](C)[C@@H](O)[C@H](O)[C@H]4O[C@@H]4O[C@H](COC(=O)[C@@H](C)[C@H](C)O)[C@@H](O)[C@H](O)[C@H]4O[C@H](O[C@H]2C)[C@@H]3OC(=O)[C@@H](C)CC)O[C@@H]1C` [ORIZABIN XVII], for which the IC50 in the data set on MCF7 [4] is 1.5 µg/mL (≈ 1.34 µM).
Same read-out and setting: the same measure for `C/C=C(\C)C(=O)O[C@H]1[C@H](O)[C@@H](O)[C@H](O[C@@H]2[C@H]3OC(=O)CCCCCCCCC[C@H](CCCCC)O[C@@H]4O[C@H](C)[C@@H](O)[C@H](O)[C@H]4O[C@@H]4O[C@H](COC(=O)C(C)C)[C@@H](O)[C@H](O)[C@H]4O[C@H](O[C@H]2C)[C@@H]3OC(=O)[C@H](C)[C@@H](C)O)O[C@@H]1C` [ORIZABIN X]: 1.5 µg/mL (≈ 1.35 µM); for `C/C=C(\C)C(=O)O[C@H]1[C@H](O)[C@@H](O)[C@H](O[C@@H]2[C@H]3OC(=O)CCCCCCCCC[C@H](CCCCC)O[C@@H]4O[C@H](C)[C@@H](O)[C@H](O)[C@H]4O[C@@H]4O[C@H](COC(=O)C(C)C)[C@@H](O)[C@H](O)[C@H]4O[C@H](O[C@H]2C)[C@@H]3OC(=O)[C@@H](C)[C@H](C)O)O[C@@H]1C` [ORIZABIN XI]: 1.5 µg/mL (≈ 1.35 µM); for `CCCCC[C@H]1CCCCCCCCCC(=O)O[C@@H]2[C@@H](O[C@@H]3O[C@H](C)[C@@H](OC(=O)[C@@H](C)CC)[C@H](O)[C@H]3O)[C@H](C)O[C@@H](O[C@H]3[C@H](O[C@H]4[C@H](O1)O[C@H](C)[C@@H](O)[C@@H]4O)O[C@H](COC(=O)[C@@H](C)[C@H](C)O)[C@@H](O)[C@@H]3O)[C@@H]2OC(=O)[C@@H](C)CC` [ORIZABIN XXI]: 1.5 µg/mL (≈ 1.34 µM).
